From US20120252730A1, “PLATELET AGGREGATION INHIBITORS” (UNIVERSITY OF CHICAGO, priority 2009, published 2012)
Ends that are not written are not given here.

Legend:
αIIbβ3 CHO K1 cells [1] = assay: Ac-GXGDSC peptide array cell adhesion, αIIbβ3 CHO K1 cells; assay type: cell-based, human; settings: 0.5% peptide spots; 300 μM cRGDFG
Procedure: (§1) Cysteine-terminated peptides were immobilized onto maleimide-presenting SAMs by adding 40 μL of 1 mM peptide solution to the biochip and incubating at 37° C. for 1 hour. Substrates were rinsed with DIUF water and ethanol and dried under a stream of nitrogen. αIIbβ3 CHO K1 cells were detached from culture plates with 1 mM EGTA/2 mM EDTA in PBS (phosphate-buffered saline), rinsed with serum-free F-12K medium, centrifuged and resuspended in serum-free F-12K medium supplemented with cRGDFG (SEQ ID NO: 12) (300 μM) and 1× penicillin/streptomycin. After 15-minute of incubation, cells (200,000/mL) were added to substrates in 24-well culture plates. After 2 hour incubation at 37° C. and 5% CO2, media was exchanged for F-12K medium supplemented with 10% FBS, 1× penicillin/streptomycin and cRGDFG (SEQ ID NO: 12) (300 μM). After 2 hours, the substrates were washed gently with warm PBS, and adherent cells were immediately fixed with 4% formaldehyde for 30 minutes, visualized with a 20× objective of a Zeiss Axiovert 200 inverted microscope, and photographed. For cell adhesion assays mediated by Ac-GXGDSC (SEQ ID NO: 26), αIIbβ3 CHO K1 cells were incubated on a 5×4 circle (1 mm diameter) array for 1 hour with serum-free F-12K medium supplemented with cRGDFG (SEQ ID NO: 12) (300 μM) and 1× penicillin/streptomycin, followed by media exchange to F-12K medium supplemented with 10% FBS, 1× penicillin/streptomycin and cRGDFG (SEQ ID NO: 12) (300 μM. The substrates were washed with warm PBS, and adherent cells were immediately fixed and permeabilized with 4% formaldehyde and 0.5% Triton-X for 30 minutes. Fixed cells were stained with DAPI, visualized and photographed with a 20× objective as described. The number of adherent cells per field of view was counted using Image J software. Cells were counted in at least three fields for each circle, and each experiment was repeated 3 times. The degree of adhesion is reported as a percentage of cells that adhere relative to control experiments with the peptide Ac-GRGDSC (SEQ ID NO: 28).
To further assay the binding of peptide ligands to the […] integrin for XGD peptide ligands, an array was used to assess the adhesion of cells to peptides having the arginine residue substituted with each amino acid other than cysteine (e.g., A, D, E, F, G, H, I, K, L, M, N, P, Q, R, S, T, V, W, and Y). The library of Ac-GXGDSC (SEQ ID NO: 26) peptides was synthesized and immobilized in an array with each peptide occupying a 1 mm diameter region of the monolayer (FIG. 61). A suspension of αIIbβ3 CHO K1 cells was applied to the entire array and cells were allowed to attach to regions presenting the various peptides. The substrates were then rinsed and stained with DAPI, and the cells were counted to determine the relative efficiency of cell attachment to peptides in the library. […] Substitution with leucine and isoleucine were also active, though at a lower level.

αIIbβ3 CHO K1 cells [2] = assay: Cell adhesion assay: αIIbβ3 CHO K1 cells on SAMs presenting immobilized peptides; assay type: cell-based, human; settings: 0.5% peptide SAM; in presence of 300 μM cRGDFG
Procedure: Monolayers were prepared as described (Houseman, et al., 2003). Glass coverslips were sonicated for 30 minutes in deionized ultrafiltered (DIUF) water and then 30 minutes in ethanol and then dried under a stream of nitrogen. Titanium (4 nm) and then gold (29 nm) were evaporated onto the coverslips using an electron beam evaporator (Boc Edwards) at a rate of 0.05-0.10 nm/s and at a pressure of 1 μTorr. The gold-coated coverslips were immersed in an ethanolic solution of maleimide-terminated disulfide (1%) and tri(ethylene glycol)-terminated disulfide (99%) overnight at room temperature. The total disulfide concentration was 1 mM. The substrates were washed with DIUF water, ethanol and then dried under a stream of nitrogen.
The pcDNA3.1 vectors that express human αIIb or β3, respectively, have been described previously (see e.g., Litvinov et al. (2006) Biochemistry, 45: 4957-4964). CHO K1, BHK 21 and HT1080 cells were purchased from ATCC. All CHO cells were cultured at 37° C. and 5% CO2 using F12K medium supplemented with 10% FBS and pen/strep. […] CHO K1 cells were transfected with αIIb and β3 cDNA with FuGENE following the supplier's protocol. Transfected cells were selected with 1 mg/mL zeocin and 1 mg/mL geneticin.
as §1
Monolayers were prepared that presented a mixture of maleimide groups and tri(ethylene glycol) groups with the former present at a density of 0.5% (relative to total alkanethiolate). The monolayers were treated with cysteine-terminated peptides to immobilize the ligands (FIG. 1A). In each case mass spectrometry was used to verify immobilization of the peptides in high yield (Su et al., 2002).
The adhesion and spreading of αIIbβ3 CHO K1 cells to monolayers presenting GRGDSC (SEQ ID NO: 11), HHLGGAKQAGDVC (SEQ ID NO: 21) and a mixture of both peptides was compared. […]

αIIbβ3 CHO K1 cells [3] = assay: Immunostaining of cytoskeletal structure of αIIbβ3 CHO K1 cells adherent to model substrates; assay type: cell-based, human; settings: monolayers presenting the peptide; four hours; anti-vinculin, phalloidin, DAPI
From the text: αIIbβ3 CHO K1 cells were allowed to adhere and spread on substrates as described above. Substrates were washed gently with PBS, and fixed and permeabilized as described above. Cells were stained with monoclonal anti-vinculin IgG to visualize focal adhesions, phalloidin to visualize stress fibers and DAPI to visualize the nucleus. Substrates were rinsed thoroughly with PBS and mounted on microscope slides with Aqua Poly/Mount (PolySciences Inc.). Substrates were visualized with a 100× objective of a Zeiss Axiovert 200 inverted microscope, and photographed.
The assembly of focal adhesion and actin stress fibers of αIIbβ3 CHO K1 cells adhered to monolayers presenting GRGDSC (SEQ ID NO: 11), HHLGGAKQAGDVC (SEQ ID NO: 21) a mixture of both peptides, and adsorbed Fbg (FIGS. 3, E, F, G and H respectively) was compared. The αIIbβ3 CHO K1 cells were allowed to attach and spread on the monolayers for four hours, and then fixed the cells and probed with anti-vinculin IgG to visualize focal adhesions and with phalloidin-AF 488 to visualize actin stress fibers.

αIIbβ3 CHO K1 cells [4] = assay: Blocking of αIIbβ3 CHO K1 cell adhesion to GRGDSC monolayer; assay type: cell-based, human; settings: PAC-1 antibody together with cyclic peptide inhibitor cRGDFG
From the text: FIG. 2 depicts the results of FACS analyses and binding studies of a αIIbβ3 expressing CHO K1 cell line. […] Transfected αIIbβ3 CHO K1 cells express αIIbβ3 at the cell surface, as detected by anti-β3 and PAC-1 antibody (bottom) (the middle and right hand lanes show anti-β3 antibody and PAC-1 antibody binding, respectively). Panel B is a graph of the concentration of cRGDFG (SEQ ID NO: 12; where F is a D amino acid) versus adhesion of αIIbβ3 CHO K1 cells. The peptide cRGDFG (SEQ ID NO: 12), a cyclic peptide that specifically binds to α5 and αV integrins, inhibits CHO K1 cell adhesion to 0.5% GRGDSC (SEQ ID NO: 11) SAMs. Panels C-F are photomicrographs of cells adhering to GRGDSC (SEQ ID NO: 11).
CHO K1 cells were used that were transfected with the αIIbβ3 receptor, as described previously (Salsmann et al., 2005). Cells were transfected with pcDNA3.1 vectors that coded for αIIb and β3 using FuGENE6 and analyzed by FACS after labeling with the PAC-1 (anti-αIIbβ3) and H-96 (anti-β3) antibodies. Approximately 30% of the cells expressed the receptor (FIG. 2A). Because the CHO K1 cells also express αv and α5 integrins on their surfaces, adhesion experiments were performed in the presence of the cyclic peptide cRGDFG (SEQ ID NO: 12), where F is a D amino acid. […] All experiments that follow, unless stated otherwise, were performed in the presence of 300 μM cRGDFG (SEQ ID NO: 12).

[5] = target: T1, human αIIbβ3 integrin on transfected CHO K1 cells (human, UniProt P08514 32-1039; P05106 27-788); assay: adhesion of αIIbβ3 CHO cells to the peptide monolayer, 300 µM cRGDFG present
T1 construct: whole, on cells; CHO K1 cells transfected with human αIIb and β3 cDNA; about 30% of the cells expressed the receptor; also called platelet receptor; platelet integrin
Procedure: For cell adhesion assays mediated by Ac-GXGDSC (SEQ ID NO: 26), αIIbβ3 CHO K1 cells were incubated on a 5×4 circle (1 mm diameter) array for 1 hour with serum-free F-12K medium supplemented with cRGDFG (SEQ ID NO: 12) (300 μM) and 1× penicillin/streptomycin, followed by media exchange to F-12K medium supplemented with 10% FBS, 1× penicillin/streptomycin and cRGDFG (SEQ ID NO: 12) (300 μM. The substrates were washed with warm PBS, and adherent cells were immediately fixed and permeabilized with 4% formaldehyde and 0.5% Triton-X for 30 minutes. Fixed cells were stained with DAPI, visualized and photographed with a 20× objective as described. The number of adherent cells per field of view was counted using Image J software. Cells were counted in at least three fields for each circle, and each experiment was repeated 3 times. The degree of adhesion is reported as a percentage of cells that adhere relative to control experiments with the peptide Ac-GRGDSC (SEQ ID NO: 28).
CHO K1 cells were used that were transfected with the αIIbβ3 receptor, as described previously (Salsmann et al., 2005). Cells were transfected with pcDNA3.1 vectors that coded for αIIb and β3 using FuGENE6 and analyzed by FACS after labeling with the PAC-1 (anti-αIIbβ3) and H-96 (anti-β3) antibodies. Approximately 30% of the cells expressed the receptor (FIG. 2A). […]

[6] = target: T1, human αIIbβ3 integrin on transfected …; assay: soluble peptide (1 pM to 100 µM) inhibits adhesion of αIIbβ3 CHO K1 cells to peptide monolayers
Procedure: Suspensions of αIIbβ3 CHO K1 cells (100,000/mL) were incubated with cRGDFG (SEQ ID NO: 12) (300 μM) in serum-free F-12K medium with 1 mg/mL BSA (bovine serum albumin) and 1× penicillin/streptomycin for 15 minutes at 37° C. and 5% CO₂. These suspensions were then supplemented with soluble peptides at concentrations ranging from 1 pM to 100 μM and further incubated for 15 minutes at 37° C. and 5% CO₂. Cells were then added to monolayers and incubated at 37° C. and 5% CO₂ for 2 hours, then media was exchanged for F-12K medium supplemented with 10% FBS and 1× penicillin/streptomycin. The substrates were further incubated for 2 hours. The substrates were washed gently with warm PBS, and adherent cells were immediately fixed and permeabilized with 4% formaldehyde and 0.5% Triton-X for 30 minutes. Fixed cells were stained with DAPI, visualized and photographed with a 20× as described previously. The number of adherent cells per field of view was counted using Image J. Cells were counted in at least five fields for each substrate, and each experiment was repeated 3 times. The degree of inhibition is reported as a percentage of cells that adhere relative to control experiments in the absence of soluble peptide.
To verify that the two peptides interact with the same site on αIIbβ3, it was determined whether the peptides GRGDS (SEQ ID NO: 4), […] (SEQ ID NO: 1) and AGDV (SEQ ID NO: 22), in soluble form, could block the attachment of cells to the monolayers presenting these ligands. In these experiments identical suspensions of cells (100,000/mL) were first incubated in serum-free F-12K medium supplemented with cRGDFG (SEQ ID NO: 12) (300 μM) and with the soluble peptides in concentrations ranging from 1 pM to 100 μM and then applied the mixtures to monolayers presenting either the GRGDSC (SEQ ID NO: 11), […] (SEQ ID NO: 21), or AGDVC (SEQ ID NO: 17) peptide (SEQ ID NO: 17) (FIG. 5). Cells were allowed to attach for 2 hours, after which media was exchanged to 10% FBS F-12K medium (supplemented with cRGDFG (SEQ ID NO: 12)) and cultured for an additional 2 hours. […]

GGRDGSC (scrambled peptide)
cell adhesion on Ac-GXGDSC array relative to Ac-GRGDSC (αIIbβ3 CHO K1 cells [1]): did not adhere | adhesion of αIIbβ3 CHO K1 cells to monolayer presenting the peptide (αIIbβ3 CHO K1 cells [2]): lack of cell attachment

GRGDSC (GRGDSC-NH2) [Cys-terminated fibrinogen RGD peptide immobilized on monolayer]
adhesion of αIIbβ3 CHO K1 cells to monolayer presenting the peptide (αIIbβ3 CHO K1 cells [2]): adhered | cytoskeletal structure and focal adhesions of adherent cells (αIIbβ3 CHO K1 cells [3]): well-developed cytoskeletal structures and mature focal adhesions along the perimeter

PAC-1
effect on adhesion of αIIbβ3 CHO K1 cells to monolayer presenting GRGDSC (αIIbβ3 CHO K1 cells [4]): prevented cell adhesion to the monolayer

B1: GRGDSC (SEQ ID NO: 11), immobilized on a self-assembled monolayer (peptide)
peptide: GRGDSC-NH2
modifications: not fully specified (residue 6); also: C-terminal Cys thiol linked to maleimide of monolayer
notes: also called 0.5% GRGDSC SAM
binding result [5]: binds

B2: HHLGGAKQAGDVC (SEQ ID NO: 21), immobilized on a self-assembled monolayer (peptide)
peptide: HHLGGAKQAGDVC-NH2
modifications: not fully specified (residue 13); also: C-terminal Cys thiol linked to maleimide of monolayer
notes: also called 0.5% HHLGGAKQAGDVC SAM; γ peptide
binding result [5]: binds

GRGDS-NH2 (also called soluble GRGDS) [GRGDS (SEQ ID NO: 4), soluble peptide]
binding result [6]: binds

B3: HHLGGAKQAGDV (SEQ ID NO: 1), soluble peptide (peptide)
peptide: HHLGGAKQAGDV-NH2
notes: Synthetic peptide; also called γ peptide
binding result [6]: binds

AGDV-NH2 (also called soluble AGDV) [AGDV (SEQ ID NO: 22), soluble peptide]
binding result [6]: binds
